# What was measured:
# MAT2A homodimer = molecular target: T1, MAT2A homodimer (Homo sapiens, UniProt P31153); experiment: MAT2A biochemical assay (phosphate release, PiColorLock Gold); settings: recombinant MAT2A homodimer, 60 min pre-incubation, 25° C.; read-out: Enzyme Inhibition
# T1 construct: inferred from Ni sepharose purification and imidazole elution; made in house; host or cells: SF9 insect cells, recombinant baculovirus (Bac to Bac, pFASTBAC1)
# In short: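 Baculovirus/Sf9-expressed, Ni-purified MAT2A homodimer (4 µg/mL in pH 8.0 Tris/KCl/MgCl2 buffer) preincubated 60 min at 25 °C with compound (2% DMSO final). Substrate mix of 500 µM ATP and 400 µM L-methionine added; 60 min at 25 °C; released phosphate quantified colorimetrically against a phosphate standard curve.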
# [1] = test system: MAT2A activity (SAM) in HCT116 cells with deleted MTAP gene; experiment: Cellular assay of target engagement (SAM) by LC-MS/MS; assay type: cell-based; settings: Homo sapiens, HCT-116; HCT116 MTAP −/−, 72 hrs; read-out: Cell 72 h SAM Inhibition (MTAP −/−)
# Experimental: Measurement of MAT2A activity in cells was made by direct quantitation of the abundance of the product of its enzymatic activity, SAM. Cancer cells were treated with candidate MAT2A inhibitors for a suitable incubation period, and the cells were then lysed using a reagent which quenched any further enzyme activity. Soluble metabolites including SAM were collected and SAM itself was directly measured from the lysate using quantitative LC-MS/MS.
# A typical assay was performed using an HCT116 human colon carcinoma cell line which was genetically engineered to delete the MTAP gene (commercially available from Horizon Discovery). This cell line was utilized because it was determined that loss of the MTAP gene predicts sensitivity to MAT2A inhibitors. Cells were plated in 96-well dishes at appropriate cell density. Following 24 hours, cells were then treated with the candidate MAT2A inhibitor. Prior to addition to cells, the compound was first serially diluted in 100% DMSO, typically as a 3-fold serial dilution starting at 500× top dose with 10 dose points including DMSO only control. Compound was then transferred to a working stock plate in cell culture media by adding 5 μL of compound in DMSO to 495 μL of cell culture media. This working stock was then added to cells via a further 5-fold dilution, by adding 25 μL of working stock to 100 μL of cells in culture media. Following compound addition, cells were incubated at 37° C./5% CO2 for 72 hrs.
# To quantitate SAM levels following compound treatment, cells were gently washed once in ammonium carbonate buffer (75 mM at pH 7.4), placed on dry ice, and lysed with metabolite extraction buffer (80% cold methanol and 20% water (v/v) with acetic acid at 1M final concentration with 200 ng/mL deuterated d3-SAM as internal control). Following centrifugation at 4° C. at 3,200 rpm for 30 minutes, the supernatant was collected and stored at −80° C. until analysis by Liquid Chromatography with tandem Mass Spectrometry (LC-MS/MS). LC-MS/MS analysis was performed using an API6500 Mass Spectrometer (Sciex, Framingham, MA, USA) operating in positive ion spray mode and equipped with a Waters UPLC Acquity (Waters, Milford, MA, USA) BEH Amide column. Multiple Reaction Monitoring data was acquired for SAM and the d3-SAM standard, using a mass transition pair at m/z 399.2→250.1 and 402.2→250.1, respectively. In a typical LC-MS/MS analysis, the initial flow rate was 0.5 ml/min of 25% mobile phase A (acetonitrile and water at 5:95 (v/v) with 1% formic acid and 10 mM ammonium acetate) and 75% mobile phase B (acetonitrile and water at 95:5 (v/v) with 1% formic acid and 10 mM ammonium acetate), 0.2-0.5 minutes with 75%-35% mobile phase B, 25%-65% mobile phase A, at 0.5 min 65% mobile phase A and 35% mobile phase B, 1.0-1.1 minutes with 35%-75% mobile phase B, 65%-25% mobile phase A, at 1.1 min 25% mobile phase A and 75% mobile phase B with a total run time of 1.5 minutes.
# HCT116 MTAP−/− = experiment: Inhibition of cellular proliferation (Cell Titer Glo), HCT116 MTAP-/-; assay type: cell-based; settings: Homo sapiens, HCT-116, 96 h, 4 days, read-out: 4 Day Relative Growth Inhibition (MTAP −/−)
# Experimental: (§1) Test compound impact on cancer cell growth was assessed by treating cancer cells with compound for 4 days and then measuring proliferation using an ATP-based cell proliferation readout (Cell Titer Glo, Promega Corporation).
# (§2) In a typical assay an isogenic pair of HCT116 human colon carcinoma cell lines which vary only in MTAP deletion status (HCT116 MTAP+/+ and HCT116 MTAP−/−) were plated in 96-well dishes at appropriate cell density. Following 24 hours, cells were then treated with the candidate MAT2A inhibitor. Prior to addition to cells, the compound was first serially diluted in 100% DMSO, typically as a 3-fold serial dilution starting at 500× top dose with 10 dose points including DMSO only control. Compound was then transferred to a working stock plate in cell culture media by adding 5 μL of compound in DMSO to 495 μL of cell culture media. This working stock was then added to cells via a further 5-fold dilution, by adding 25 μL of working stock to 100 μL of cells in culture media. Following compound addition, cells were incubated at 37° C./5% CO2 for 4 days.
# (§3) To measure inhibition of cellular proliferation, cells were allowed to equilibrate to room temperature for 30 minutes, and were then treated with 125 μL of Cell Titer Glo reagent. The plate was then covered with aluminum foil and shaken for 15 minutes to ensure complete mixing and full cell lysis. Luminescent signal was then measured using a plate-based luminometer Veritas version 1.9.2 using ATP standard curve to confirm assay reproducibility from run to run. This luminescence measure was converted to a proliferation index by subtracting from each data point the ATP luminescence signal measured from a bank (no cells) well and dividing by the ATP luminescence signal measured in 0.2% DMSO control well adjusted for signal in blank well. Compound activity was then represented as a percentage change in proliferation relative to a within-plate DMSO control against log 10 of compound concentration in molar (M) units.
# HCT116 MTAP+/+ = experiment: Inhibition of cellular proliferation (Cell Titer Glo), HCT116 MTAP+/+; assay type: cell-based; settings: Homo sapiens, HCT-116, 96 h, 4 days, read-out: 4 Day Relative Growth Inhibition (MTAP +/+)
# Experimental: as §1, §2, §3
# T1 sequence (P31153 whole entry): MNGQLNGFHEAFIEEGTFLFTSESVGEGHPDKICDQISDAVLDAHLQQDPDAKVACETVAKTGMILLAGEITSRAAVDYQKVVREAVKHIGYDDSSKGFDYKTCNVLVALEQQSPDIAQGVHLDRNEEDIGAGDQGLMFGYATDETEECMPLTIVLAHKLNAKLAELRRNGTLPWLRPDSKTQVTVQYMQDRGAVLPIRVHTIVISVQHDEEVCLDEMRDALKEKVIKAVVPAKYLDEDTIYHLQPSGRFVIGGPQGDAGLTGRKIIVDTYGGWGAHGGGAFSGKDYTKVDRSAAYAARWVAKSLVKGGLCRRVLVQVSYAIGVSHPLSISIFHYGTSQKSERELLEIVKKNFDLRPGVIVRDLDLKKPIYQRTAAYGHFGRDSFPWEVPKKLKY
SMILES,IC50 (MAT2A homodimer) [nM],IC50 [1] [nM],IC50 (HCT116 MTAP−/−) [nM],IC50 (HCT116 MTAP+/+) [nM]
O=c1c(-c2ccc(OC(F)F)nc2)c2nc(OCC(F)F)ccc2nn1-c1ccc2ncsc2c1 [Example 148],< 100,100 to 1000,100 to 1000,≥ 1000
Cn1cc2cc(-n3nc4ccc(OCC(F)F)nc4c(C4=CCC(O)CC4)c3=O)ccc2n1 (stereo not drawn) [Example 149],< 100,< 100,100 to 1000,≥ 1000
Cn1cc2cc(-n3nc4ccc(OCC(F)F)nc4c(-c4ccc5[nH]ccc5c4)c3=O)ccc2n1 [Example 150],< 100,< 100,< 100,≥ 1000
[2H]C([2H])([2H])Oc1ccc(-c2c(=O)n(-c3ccc4ncsc4c3)nc3ccc(OCC(F)F)nc23)cc1 [Example 151],< 100,< 100,< 100,≥ 1000
COC1CC=C(c2c(=O)n(-c3ccc4nn(C)cc4c3)nc3ccc(OCC(F)F)nc23)CC1 (stereo not drawn) [Example 152],< 100,< 100,< 100,100 to 1000
Cn1cc2cc(-n3nc4ccc(OCC(F)F)nc4c(-c4ccn[nH]4)c3=O)ccc2n1 [Example 153],100 to 1000,> 1000,≥ 1000,≥ 1000
Cn1cc2cc(-n3nc4ccc(NCC(F)(F)F)nc4c(-c4ccc(Cl)cc4)c3=O)ccc2n1 [Example 154],< 100,< 100,< 100,≥ 1000
Cn1cc2cc(-n3nc4ccc(NC5CC5)nc4c(-c4ccc(Cl)cc4)c3=O)ccc2n1 [Example 155],< 100,< 100,< 100,≥ 1000
Cn1cc2cc(-n3nc4ccc(NCC(F)F)nc4c(-c4ccc(Cl)cc4)c3=O)ccc2n1 [Example 156],< 100,< 100,< 100,≥ 1000
[2H]C([2H])([2H])Oc1ccc(-c2c(=O)n(-c3ccc4nn(C)cc4c3)nc3ccc(OCCF)nc23)cc1 [Example 157],< 100,100 to 1000,100 to 1000,≥ 1000
CCSc1ccc2nn(-c3ccc4nn(C)cc4c3)c(=O)c(-c3ccc(OC(F)F)cc3)c2n1 [Example 158],< 100,< 100,< 100,≥ 1000
CCNc1ccc2nn(-c3ccc4nn(C)cc4c3)c(=O)c(-c3ccc(OC(F)F)cc3)c2n1 [Example 159],< 100,< 100,< 100,≥ 1000
Cn1cc2cc(-n3nc4ccc(NCC(F)(F)F)nc4c(-c4ccc(OC(F)F)cc4)c3=O)ccc2n1 [Example 160],< 100,< 100,< 100,≥ 1000
[2H]C([2H])([2H])C([2H])([2H])Oc1ccc2nn(-c3ccc4nn(C)cc4c3)c(=O)c(-c3ccc(OC(F)F)cc3)c2n1 [Example 161],< 100,< 100,< 100,≥ 1000
Cn1cc2cc(-n3nc4ccc(NC5CC5)nc4c(-c4ccc(OC(F)F)cc4)c3=O)ccc2n1 [Example 162],< 100,< 100,< 100,≥ 1000
Cn1cc2cc(-n3nc4ccc(N5CCCC5)nc4c(-c4ccc(OC(F)F)cc4)c3=O)ccc2n1 [Example 163],< 100,> 1000,≥ 1000,≥ 1000
Cn1cc2cc(-n3nc4ccc(SCC(F)(F)F)nc4c(-c4ccc(OC(F)F)cc4)c3=O)ccc2n1 [Example 165],< 100,< 100,< 100,100 to 1000
"Cc1c2cc(-n3nc4ccc(OCC(F)F)nc4c(-c4ccc(OC(F)F)cc4)c3=O)ccc2nn1C [Example 166, 6-(2,2-difluoroethoxy)-4-(4-(difluoromethoxy)phenyl)-2-(2,3-dimethyl-2H-indazol-5-yl)pyrido[3,2-c]pyridazin-3(2H)-one]",< 100,< 100,< 100,≥ 1000
"Cn1cnc2ccc(-n3nc4ccc(OCC(F)F)nc4c(-c4ccc(OC(F)F)cc4)c3=O)cc21 [Example 167, 6-(2,2-difluoroethoxy)-4-(4-(difluoromethoxy)phenyl)-2-(1-methyl-1H-benzo[d]imidazol-6-yl)pyrido[3,2-c]pyridazin-3(2H)-one]",< 100,< 100,< 100,≥ 1000
CCOc1ccc2nn(-c3ccc4ncccc4c3)c(=O)c(-c3ccc(Cl)cc3)c2n1 [Example 168],< 100,< 100,100 to 1000,≥ 1000
O=c1c(-c2ccc(OC(F)F)cc2)c2nc(OCC(F)F)ccc2nn1-c1ccc2ncsc2c1 [Example 169],< 100,< 100,< 100,< 100
O=c1c(-c2ccc(OC(F)F)cc2)c2nc(OCC(F)F)ccc2nn1-c1ccc2nccn2c1 [Example 170],< 100,< 100,100 to 1000,≥ 1000
COc1c2cc(-n3nc4ccc(OCC(F)F)nc4c(-c4ccc(OC(F)F)cc4)c3=O)ccc2nn1C [Example 171],< 100,< 100,< 100,≥ 1000
COc1nc2ccc(-n3nc4ccc(OCC(F)F)nc4c(-c4ccc(OC(F)F)cc4)c3=O)cc2n1C [Example 172],< 100,< 100,< 100,≥ 1000
Cc1c2cc(-n3nc4ccc(OCC(F)F)nc4c(-c4ccc(Cl)cc4)c3=O)ccc2nn1C [Example 173],< 100,< 100,< 100,100 to 1000
COc1c2cc(-n3nc4ccc(OCC(F)F)nc4c(-c4ccc(Cl)cc4)c3=O)ccc2nn1C [Example 174],< 100,< 100,< 100,≥ 1000
[2H]C([2H])([2H])Oc1c2cc(-n3nc4ccc(OCC(F)F)nc4c(-c4ccc(OC(F)F)cc4)c3=O)ccc2nn1C [Example 175],< 100,< 100,< 100,100 to 1000

# Reference: patent US12077534B2, “Aza-heterobicyclic inhibitors of MAT2A and methods of use for treating cancer” (Les Laboratoires Servier SAS, priority 2018, dated 2024)
